In experiment [1] the test system is Nucleic Acid. The experiment is described as follows: Binding affinity to d(CGTACG)2 assessed as average residence time. In kind it is nucleic-acid assay.
The subject of experiment [2] is Nucleic Acid. The experiment is described as follows: Binding affinity to d(CGATCG)2 assessed as average residence time. Type of experiment: nucleic-acid assay.

As for `CC(=O)[C@]1(O)Cc2c(O)c3c(c(O)c2[C@@H](O[C@H]2C[C@H](O)[C@H](O[C@H]4C[C@H](N)[C@H](O)[C@H](C)O4)[C@H](C)O2)C1)C(=O)c1ccccc1C3=O`, the TIME in the experiment on Nucleic Acid [1] and with Nucleic Acid [2] was 5e-05 h throughout.

With `C[C@@H]1O[C@@H](O[C@@H]2[C@H](C)O[C@@H](O[C@H]3C[C@](O)(C(=O)CO)Cc4c(O)c5c(c(O)c43)C(=O)c3ccccc3C5=O)C[C@@H]2O)C[C@H](N)[C@@H]1O`, the TIME came to 5.83e-05 h in the experiment on Nucleic Acid [1] and 0.000131 h with Nucleic Acid [2].

Regarding `COc1cccc2c1C(=O)c1c(O)c3c(c(O)c1C2=O)C[C@@](O)(C(=O)CO)C[C@@H]3O[C@H]1C[C@H](N)[C@H](O)[C@H](C)O1`, the TIME in the experiment on Nucleic Acid [1] amounted to 0.000347 h; with Nucleic Acid [2], 0.000231 h.

Take `COc1cccc2c1C(=O)c1c(O)c3c(c(O)c1C2=O)C[C@@](O)(C(=O)CO)C[C@@H]3O[C@H]1C[C@H](N2CCO[C@H](OC)C2)[C@H](O)[C@H](C)O1`: in the experiment with Nucleic Acid [1], the TIME was found to be 0.00139 h.
